Eleven compounds from US20050171216A1, “Germicidal compositions containing phthalaldehyde mixtures and methods of using such compositions for disinfection or sterilization” (priority 2004, published 2005) can be followed below.

Where only a bound is given, the exact number is not on record here.

The subject of series [1] is Mycobacterium terrae bacteria. The series is described as follows: bacterial suspension test (killing of at least 1×10^6/mL bacteria). Type of series: cell-based. As to conditions: for Log Reductions/mL: 20° C.; for Germicidal Efficacy: summary Table 14. As to the method:
The bacterial suspension test that was employed is described in Section VII.
The solutions were prepared by adding the appropriate amounts of the germicidal compounds to an aqueous solution. Unless otherwise mentioned all concentrations reported herein are expressed in (w/v) %. The pH of the solution was not adjusted. The tests were conducted at a temperature of about 20° C. (room temperature). The results are presented in terms of log reductions/mL. It is understood that these examples, as well as the other examples herein, are to be construed as merely illustrative, and not limiting.
In this test method, 9 mL of the germicide to be tested is placed in a tube, put into a water bath and allowed to come to the desired temperature. One mL of the test organism, including at least 7 logs/mL of Mycobacterium terrae bacteria, is added to the 9 mL of the germicide to be tested. […] It will be appreciated by those skilled in the art that other concentrations may be utilized by proper dilution and accounting.
At appropriate time intervals, 1 mL aliquots of the germicide-cell suspension were removed and added directly into 9 mL of a 1% glycine solution (neutralizer) and mixed thoroughly to neutralize the germicide in the transferred suspension. The glycine solution was prepared from solid glycine, which is available from VWR Scientific Products, among others. The above-identified 10 mL neutralized solution was then poured through a membrane filter having an average pore size of 0.45 micrometers. The filter was then rinsed twice with at least 150 mL of the 1% glycine solution per rinse. The filter was then placed on an agar plate and incubated for twenty-one days at 37° C. In the above procedure, if dilution was needed, then the 1 mL germicidal-cell suspension was diluted in 99 mL of a phosphate buffer before addition to the 9 mL of the 1% glycine solution. The phosphate buffer was DiLu-LoK™ Butterfields Phosphate Buffer, available from Hardy Diagnostics, of Santa Maria, Calif.
The surviving colonies are then counted. The data is plotted as S/So vs. time. So is the initial count of the bacteria in the above 10 mL solution which is at least 10^6 bacteria/mL, and S is the surviving bacteria from the above filter on the agar plate. The results of the experiments were presented in terms of log reductions. Log reduction is the difference between log(So) and log(S). As one example, if log(So)=6.2, and if there were 100 survivors, then the log(S)=2, and the log reduction was reported as 4.2.

A short description of series [2]: solubility in water. It is filed as physicochemical. Particulars: for Concentration, Saturated: saturated aqueous germicidal solution, pH not adjusted.

As for `O=Cc1cccc(C=O)c1` [IPA, isophthalaldehyde], the “Log Reductions/mL” value is listed as “Confluent” in series [1] (0.3%, dissolved in 20% isopropanol, 5 min) and “Confluent” in series [1] (0.3%, dissolved in 20% isopropanol, 5 min (Table 15)). For the same compound, the “Germicidal Efficacy” value in series [1] is on record as “Poor”.

Take `O=Cc1ccccc1C=O` [OPA, phthalaldehyde]: the “Log Reductions/mL” value in series [1] (0.14%, 5 min) was determined as 4.8 log reductions/mL; in series [1] (0.28%, 5 min), 5.5 log reductions/mL. For the same compound, in series [1], the “Germicidal Efficacy” value was “Good”. Further, the solubility in water result in series [2] is “about 5 % by weight”.

On to `O=CC(C=O)c1ccccc1` [phenyl-propanedial], for which the “Log Reductions/mL” value is 2.1 log reductions/mL in series [1] (0.2%, 60 min); 2.1 log reductions/mL in series [1] (0.22%, 60 min); 2.1 log reductions/mL in series [1] (0.3%, 30 min); 2.1 log reductions/mL in series [1] (0.33%, 30 min); 2.5 log reductions/mL in series [1] (0.4%, 30 min); 2.5 log reductions/mL in series [1] (0.44%, 30 min). The “Log Reductions/mL” value is less than 2.5 log reductions/mL in series [1] (0.66%, 5 min); 2.5 log reductions/mL in series [1] (0.66%, 10 min); 2.5 log reductions/mL in series [1] (0.7%, 10 min); 4.5 log reductions/mL in series [1] (˜1%, 5 min (Table 15)). Also, the solubility in water result in series [2] was “about 1%”.

As for `O=Cc1ccc(Cl)cc1C=O` [4-chloro-phthalaldehyde], the “Log Reductions/mL” value in series [1] (0.2 w/v %, 5 min) was 5.9 log reductions/mL; in series [1] (2.7 w/v % in 20% isopropanol, 5 min) it was “Total Kill”.

`O=Cc1ccc(F)cc1C=O` [4-fluoro-phthalaldehyde]: the “Log Reductions/mL” value in series [1] (0.25%, 60 minutes exposure) is “Total Kill”.

For `O=CC(C=O)c1cccc(C(=O)O)c1[N+](=O)[O-]` [3-(1-formyl-2-oxoethyl)-2-nitro-benzoic acid], in series [1] (Saturated (˜2.1% w/v), 5 min), the “Log Reductions/mL” value is listed as 4.0 log reductions/mL. Moreover, the “Concentration, Saturated” value in series [2] is reported as “(˜2.1%) w/v %”.

Consider `O=CC(c1ccccc1)C(O)S(=O)(=O)[O-].[Na+]` (stereo not drawn) [1-hydroxy-3-oxo-2-phenyl-propane-1-sulfonic acid, sodium salt], for which the “Log Reductions/mL” value in series [1] (0.6%, 5 min) is reported as 2.1 log reductions/mL; in series [1] (0.6%, 20 min), 2.5 log reductions/mL; in series [1] (0.6%, 25 min), 2.9 log reductions/mL; in series [1] (0.6%, 60 min, sodium salt) it was “total kill”; in series [1] (2.5%, 10 min, sodium salt), “total kill”.

In the case of `O=Cc1ccccc1C(O)S(=O)(=O)[O-].[Na+]` (stereo not drawn) [(2-formyl-phenyl)-hydroxy-methane sulfonic acid, sodium salt], the “Log Reductions/mL” value is given as “confluent” in series [1] (9.1%, no dialdehyde, 5 min, listed as (2-formyl-phenyl)-hydroxy-methane sulfonate, sodium salt) and “Confluent” in series [1] (9.1%, no dialdehyde, 5 min, listed as H-SULF, sodium salt).

Turning to 4-pyridinyl-propanedial, in series [1] (Saturated (˜2.3% w/v), 5 min), the “Log Reductions/mL” value is given as 4.0 log reductions/mL. In addition, the “Concentration, Saturated” value in series [2] is “(˜2.3%) w/v %”.

Consider `O=Cc1ccc(Br)cc1C=O` [4-bromo-phthalaldehyde], for which the “Log Reductions/mL” value in series [1] (0.1%, 10 minutes) was 5.6 log reductions/mL; in series [1] (0.1%, 30 minutes) it was “Total Kill”.

As for `O=Cc1ccc(C=O)cc1` [TPA, terephthalaldehyde], in series [1] (0.2%, dissolved in 20% isopropanol, 5 min), the “Log Reductions/mL” value is listed as “Confluent”. Further, in series [1], the “Germicidal Efficacy” value was “Poor”.
